Laboratory results reported in patent publication US20150094474A1, “AGRICULTURAL CHEMICALS” (Redx Pharma Ltd., priority 2012, published 2015).

How the values were obtained:
[1] = test system: barley; experiment: Herbicidal bioassay, barley (% necrosis); assay type: in vivo
Summary of the method: (§1)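 Scoring of % necrosis followed EPPO guideline PP1/135 at specified growth intervals, five replicates per species and treatment. Plants at the 2-4 true leaf stage received Potter-tower sprays of DMSO-diluted compounds across six levels from 0.0001% to 0.05%, with water and DMSO controls.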

[2] = test system: peas; experiment: Herbicidal bioassay, peas (% necrosis); assay type: in vivo
Summary of the method: as §1

COc1cc(OC)nc(NC(=O)NS(=O)(=O)c2cc(CNS(C)(=O)=O)ccc2COC(C)=O)n1 [Compound 61, [2-[(4,6-Dimethoxypyrimidin-2-yl)carbamoylsulfamoyl]-4-(methanesulfonamidomethyl)phenyl]methylacetate]
Sum of % necrosis in barley ([1]; Dose 0.000001, Day 0): C (less than 50% necrosis) | Sum of % necrosis in barley ([1]; Dose 0.000001, Day 1): C (less than 50% necrosis) | Sum of % necrosis in barley ([1]; Dose 0.000001, Day 3): C (less than 50% necrosis) | Sum of % necrosis in barley ([1]; Dose 0.000001, Day 7): C (less than 50% necrosis) | Sum of % necrosis in barley ([1]; Dose 0.000001, Day 10): C (less than 50% necrosis) | Sum of % necrosis in barley ([1]; Dose 0.000001, Day 14): C (less than 50% necrosis) | Sum of % necrosis in barley ([1]; Dose 0.000005, Day 0): C (less than 50% necrosis) | Sum of % necrosis in barley ([1]; Dose 0.000005, Day 1): C (less than 50% necrosis) | Sum of % necrosis in barley ([1]; Dose 0.000005, Day 3): C (less than 50% necrosis) | Sum of % necrosis in barley ([1]; Dose 0.000005, Day 7): C (less than 50% necrosis) | Sum of % necrosis in barley ([1]; Dose 0.000005, Day 10): C (less than 50% necrosis) | Sum of % necrosis in barley ([1]; Dose 0.000005, Day 14): C (less than 50% necrosis) | Sum of % necrosis in barley ([1]; Dose 0.00001, Day 0): C (less than 50% necrosis) | Sum of % necrosis in barley ([1]; Dose 0.00001, Day 1): C (less than 50% necrosis) | Sum of % necrosis in barley ([1]; Dose 0.00001, Day 3): C (less than 50% necrosis) | Sum of % necrosis in barley ([1]; Dose 0.00001, Day 7): C (less than 50% necrosis) | Sum of % necrosis in barley ([1]; Dose 0.00001, Day 10): C (less than 50% necrosis) | Sum of % necrosis in barley ([1]; Dose 0.00001, Day 14): C (less than 50% necrosis) | Sum of % necrosis in barley ([1]; Dose 0.00005, Day 0): C (less than 50% necrosis) | Sum of % necrosis in barley ([1]; Dose 0.00005, Day 1): C (less than 50% necrosis) | Sum of % necrosis in barley ([1]; Dose 0.00005, Day 3): C (less than 50% necrosis) | Sum of % necrosis in barley ([1]; Dose 0.00005, Day 7): C (less than 50% necrosis) | Sum of % necrosis in barley ([1]; Dose 0.00005, Day 10): C (less than 50% necrosis) | Sum of % necrosis in barley ([1]; Dose 0.00005, Day 14): C (less than 50% necrosis) | Sum of % necrosis in barley ([1]; Dose 0.0001, Day 0): C (less than 50% necrosis) | Sum of % necrosis in barley ([1]; Dose 0.0001, Day 1): C (less than 50% necrosis) | Sum of % necrosis in barley ([1]; Dose 0.0001, Day 3): C (less than 50% necrosis) | Sum of % necrosis in barley ([1]; Dose 0.0001, Day 7): C (less than 50% necrosis) | Sum of % necrosis in barley ([1]; Dose 0.0001, Day 10): C (less than 50% necrosis) | Sum of % necrosis in barley ([1]; Dose 0.0001, Day 14): C (less than 50% necrosis) | Sum of % necrosis in barley ([1]; Dose 0.0005, Day 0): C (less than 50% necrosis) | Sum of % necrosis in barley ([1]; Dose 0.0005, Day 1): C (less than 50% necrosis) | Sum of % necrosis in barley ([1]; Dose 0.0005, Day 3): C (less than 50% necrosis) | Sum of % necrosis in barley ([1]; Dose 0.0005, Day 7): C (less than 50% necrosis) | Sum of % necrosis in barley ([1]; Dose 0.0005, Day 10): C (less than 50% necrosis) | Sum of % necrosis in barley ([1]; Dose 0.0005, Day 14): C (less than 50% necrosis) | Sum of % necrosis in Pea ([2]; Dose 0.000001, Day 0): C (less than 50% necrosis) | Sum of % necrosis in Pea ([2]; Dose 0.000001, Day 1): C (less than 50% necrosis) | Sum of % necrosis in Pea ([2]; Dose 0.000001, Day 3): C (less than 50% necrosis) | Sum of % necrosis in Pea ([2]; Dose 0.000001, Day 7): C (less than 50% necrosis) | Sum of % necrosis in Pea ([2]; Dose 0.000001, Day 10): C (less than 50% necrosis) | Sum of % necrosis in Pea ([2]; Dose 0.000001, Day 14): C (less than 50% necrosis) | Sum of % necrosis in Pea ([2]; Dose 0.000005, Day 0): C (less than 50% necrosis) | Sum of % necrosis in Pea ([2]; Dose 0.000005, Day 1): C (less than 50% necrosis) | Sum of % necrosis in Pea ([2]; Dose 0.000005, Day 3): C (less than 50% necrosis) | Sum of % necrosis in Pea ([2]; Dose 0.000005, Day 7): C (less than 50% necrosis) | Sum of % necrosis in Pea ([2]; Dose 0.000005, Day 10): C (less than 50% necrosis) | Sum of % necrosis in Pea ([2]; Dose 0.000005, Day 14): C (less than 50% necrosis) | Sum of % necrosis in Pea ([2]; Dose 0.00001, Day 0): C (less than 50% necrosis) | Sum of % necrosis in Pea ([2]; Dose 0.00001, Day 1): C (less than 50% necrosis) | Sum of % necrosis in Pea ([2]; Dose 0.00001, Day 3): C (less than 50% necrosis) | Sum of % necrosis in Pea ([2]; Dose 0.00001, Day 7): C (less than 50% necrosis) | Sum of % necrosis in Pea ([2]; Dose 0.00001, Day 10): C (less than 50% necrosis) | Sum of % necrosis in Pea ([2]; Dose 0.00001, Day 14): B (50%-80% necrosis) | Sum of % necrosis in Pea ([2]; Dose 0.00005, Day 0): C (less than 50% necrosis) | Sum of % necrosis in Pea ([2]; Dose 0.00005, Day 1): C (less than 50% necrosis) | Sum of % necrosis in Pea ([2]; Dose 0.00005, Day 3): C (less than 50% necrosis) | Sum of % necrosis in Pea ([2]; Dose 0.00005, Day 7): C (less than 50% necrosis) | Sum of % necrosis in Pea ([2]; Dose 0.00005, Day 10): B (50%-80% necrosis) | Sum of % necrosis in Pea ([2]; Dose 0.00005, Day 14): B (50%-80% necrosis) | Sum of % necrosis in Pea ([2]; Dose 0.0001, Day 0): C (less than 50% necrosis) | Sum of % necrosis in Pea ([2]; Dose 0.0001, Day 1): C (less than 50% necrosis) | Sum of % necrosis in Pea ([2]; Dose 0.0001, Day 3): C (less than 50% necrosis) | Sum of % necrosis in Pea ([2]; Dose 0.0001, Day 7): C (less than 50% necrosis) | Sum of % necrosis in Pea ([2]; Dose 0.0001, Day 10): C (less than 50% necrosis) | Sum of % necrosis in Pea ([2]; Dose 0.0001, Day 14): C (less than 50% necrosis) | Sum of % necrosis in Pea ([2]; Dose 0.0005, Day 0): C (less than 50% necrosis) | Sum of % necrosis in Pea ([2]; Dose 0.0005, Day 1): C (less than 50% necrosis) | Sum of % necrosis in Pea ([2]; Dose 0.0005, Day 3): C (less than 50% necrosis) | Sum of % necrosis in Pea ([2]; Dose 0.0005, Day 7): B (50%-80% necrosis) | Sum of % necrosis in Pea ([2]; Dose 0.0005, Day 10): B (50%-80% necrosis) | Sum of % necrosis in Pea ([2]; Dose 0.0005, Day 14): A (over 80% necrosis)
